target: T1, wildtype HIV-1 protease (Human immunodeficiency virus type 1 group M subtype B, UniProt P04585); assay: Assay for Inhibition of Microbial Expressed HIV Protease (Pepcleav); assay type: biochemical
T1 construct: preincubated with the HIV-1 protease (wild type) enzyme in assay buffer; made in house; host or cells: Escherichia coli
Procedure: Assay for Inhibition of Microbial Expressed HIV Protease (“Pepcleav”)
Studies of the inhibition of the wildtype HIV-1 protease (which was expressed in Escherichia coli) were carried out with a peptide substrate [Val-Ser-Gln-Asn-(βnaphthyl)Ala-Pro-Ile-Val (SEQ ID NO: 1)]. The inhibitor was first preincubated with the HIV-1 protease (wild type) enzyme in assay buffer (50 mM sodium acetate, pH 5.5, 100 mM NaCl, and 0.1% BSA) for 30 minutes at room temperature. Substrate was added to 400 micromolar in a total volume of 20 microliters containing 20 picomolar HIV-1 protease (final) and the reaction was incubated for 1 hour at 30° C. The reaction was quenched with the addition of formic acid and indinavir to 0.012% and 150 nM final concentrations, respectively. The product formation was determined after separation of product and substrate on a Zorbax Eclipse XDB-C18 column connected to an API 4000 mass spectrometer (Applied Biosystems) with multiple reaction monitoring (transitions were 644.5/428.9 and 615.4/422.2 (M1/M3) for product and indinavir respectively). The extent of inhibition of the reaction was determined from the peak area of the products. Analysis of the products, independently synthesized, provided quantitation standards and confirmation of the product composition.

With `O=C(C[C@@H](c1ccc(F)cc1)c1ccc(F)cc1F)Nc1cccc(F)c1CC[C@@H]1CN[C@H](c2nc3ccccc3[nH]2)CO1` [Example 98, (3S)-N-(2-{2-[(2R,5R)-5-(1H-benzimidazol-2-yl)morpholin-2-yl]ethyl}-3-fluorophenyl)-3-(2,4-difluorophenyl)-3-(4-fluorophenyl) propanamide] as the compound, how does the IC50 read?
Its IC50 is 0.05 nM.

With `COC(=O)N[C@H](C(=O)Nc1ccccc1CC[C@@H]1CN[C@H](c2nc3ccc(S(C)(=O)=O)cc3[nH]2)CO1)C(c1ccccc1)c1ccccc1` [Example 7, methyl N-[(1S)-1-benzhydryl-2-[[2-[2-[(2R,5R)-5-(6-methylsulfonyl-1H-benzimidazol-2-yl)morpholin-2-yl]ethyl]phenyl]amino]-2-oxo-ethyl]carbamate] as the compound, how does the IC50 read?
The IC50 was 37.1 nM.

Which IC50 does the source give for `COC(=O)N[C@H](C(=O)Nc1ccccc1CC[C@@H]1CN[C@H](c2nc3ccc(C(F)(F)F)cc3[nH]2)CO1)C(c1ccccc1)c1ccccc1` [Example 8, methyl N-[(1S)-1-benzhydryl-2-oxo-2-[[2-[2-[(2R,5R)-5-[6-(trifluoromethyl)-1H-benzimidazol-2-yl]morpholin-2-yl]ethyl]phenyl]amino]ethyl]carbamate] here?
The IC50 was 0.504 nM.

Which IC50 does the source give for `C#C[C@@H]1CO[C@H](CCc2ccccc2NC(=O)[C@@H](NC(=O)OC)C(c2ccccc2)c2ccccc2)CN1` [Example 49, N-(2-{2-[(2R,5R)-5-ethynylmorpholin-2-yl]ethyl}phenyl)-Nα-(methoxycarbonyl)-β-phenyl-L-phenylalaninamide] here?
The IC50 was 824 nM.

Which IC50 does the source give for `N[C@H](C(=O)Nc1cncc(F)c1CC[C@@H]1CN[C@H](c2nc3cc(F)c(F)cc3[nH]2)CO1)C(c1ccc(F)cc1)c1ccc(F)cc1` [Example 93, N-(4-{2-[(2R,5R)-5-(5,6-difluoro-1H-benzimidazol-2-yl)morpholin-2-yl]ethyl}-5-fluoropyridin-3-yl)-4-fluoro-β-(4-fluorophenyl)-L-phenylalaninamide] here?
The IC50 was 0.02 nM.

How did the IC50 turn out when `COC(=O)N[C@H](C(=O)Nc1ccccc1CC[C@@H]1CN[C@H](c2cnn[nH]2)CO1)C(c1ccccc1)c1ccccc1` [Example 52, Nα-(methoxycarbonyl)-β-phenyl-N-(2-{2-[(2R,5R)-5-(1H-1,2,3-triazol-5-yl)morpholin-2-yl]ethyl}phenyl)-L-phenylalaninamide] was run?
Its IC50 is 250 nM.

For `COC(=O)N[C@H](C(=O)Nc1cnccc1CC[C@@H]1CN[C@H](c2nc3cc(C)c(C)cc3[nH]2)CO1)C(c1ccccc1)c1ccccc1` [Example 32, methyl N-[(1S)-1-benzhydryl-2-[[4-[2-[(2R,5R)-5-(5,6-dimethyl-1H-benzimidazol-2-yl)morpholin-2-yl]ethyl]-3-pyridyl]amino]-2-oxo-ethyl]carbamate], which IC50 is on record?
Its IC50 is 0.04 nM.

With `COC(=O)N[C@H](C(=O)Nc1ccccc1CC[C@@H]1CN[C@H](c2nnn[nH]2)CO1)C(c1ccccc1)c1ccccc1` [Example 77, Nα-(methoxycarbonyl)-β-phenyl-N-(2-{2-[(2R,5R)-5-(1H-tetrazol-5-yl)morpholin-2-yl]ethyl}phenyl)-L-phenylalaninamide] as the compound, how does the IC50 read?
Its IC50 is 3.5 nM.

How did the IC50 turn out when `COC(=O)N[C@H](C(=O)Nc1ccccc1CC[C@@H]1CN[C@H](c2ncc(Cc3ccccc3)[nH]2)CO1)C(c1ccccc1)c1ccccc1` [Example 44, N-(2-{2-[(2R,5R)-5-(5-benzyl-1H-imidazol-2-yl)morpholin-2-yl]ethyl}phenyl)-Nα-(methoxycarbonyl)-β-phenyl-L-phenylalaninamide] was run?
Its IC50 is 0.568 nM.

For `COC(=O)N[C@H](C(=O)Nc1ccccc1CC[C@@H]1CN[C@H](c2nnc(C)o2)CO1)C(c1ccccc1)c1ccccc1` [Example 80], which IC50 is on record?
The IC50 was 220 nM.

Which IC50 does the source give for `COC(=O)N[C@H](C(=O)Nc1ccccc1CC[C@@H]1CN[C@H](c2nc3ccc(OC)cc3[nH]2)CO1)C(c1ccccc1)c1ccccc1` [Example 6, methyl N-[(1S)-1-benzhydryl-2-[[2-[2-[(2R,5R)-5-(6-methoxy-1H-benzimidazol-2-yl)morpholin-2-yl]ethyl]phenyl]amino]-2-oxo-ethyl]carbamate] here?
Its IC50 is 0.334 nM.

For `COC(=O)N[C@H](C(=O)Nc1ccccc1CC[C@@H]1CN[C@H](c2ncc(C)[nH]2)CO1)C(c1ccccc1)c1ccccc1` [Example 43, methyl {(1S)-1-(diphenylmethyl)-2-[(2-{2-[(2R,5R)-5-(5-methyl-1H-imidazol-2-yl)morpholin-2-yl]ethyl}phenyl)amino]-2-oxoethyl}carbamate], which IC50 is on record?
The IC50 was 1.02 nM.

How did the IC50 turn out when `O=C(CC(c1ccc(F)cc1)c1ccc(F)cc1)Nc1cccc(F)c1CC[C@@H]1CN[C@H](c2nc3ccccc3[nH]2)CO1` [Example 97, N-(2-{2-[(2R,5R)-5-(1H-benzimidazol-2-yl)morpholin-2-yl]ethyl}-3-fluorophenyl)-3,3-bis(4-fluorophenyl) propanamide] was run?
The IC50 was 0.04 nM.

With `COC(=O)N[C@H](C(=O)Nc1ccccc1CC[C@@H]1CN[C@H](c2ncon2)CO1)C(c1ccccc1)c1ccccc1` [Example 41, methyl {(1S)-1-(diphenylmethyl)-2-[(2-{2-[(2R,5R)-5-(1,2,4-oxadiazol-3-yl)morpholin-2-yl]ethyl}phenyl)amino]-2-oxoethyl}carbamate] as the compound, how does the IC50 read?
The IC50 was 304 nM.

For `COC(=O)N[C@H](C(=O)Nc1ccccc1CC[C@@H]1CN[C@H](c2cnnn2Cc2ccccc2)CO1)C(c1ccccc1)c1ccccc1` [Example 51, N-(2-{2-[(2R,5R)-5-(1-benzyl-1H-1,2,3-triazol-5-yl)morpholin-2-yl]ethyl}phenyl)-Nα-(methoxycarbonyl)-β-phenyl-L-phenylalaninamide], which IC50 is on record?
Its IC50 is 576 nM.

For `O=C(C[C@H](c1ccccc1)c1ccc(F)cc1)Nc1cncc(F)c1CC[C@@H]1CN[C@H](c2nc3cc(F)c(F)cc3[nH]2)CO1` [Example 70, (3R)—N-(4-{2-[(2R,5R)-5-(5,6-difluoro-1H-benzimidazol-2-yl)morpholin-2-yl]ethyl}-5-fluoropyridin-3-yl)-3-(4-fluorophenyl)-3-phenylpropanamide], which IC50 is on record?
Its IC50 is 0.01 nM.

Which IC50 does the source give for `COC(=O)N[C@H](C(=O)Nc1ccccc1CC[C@@H]1CN[C@H](c2nnc(-c3ccc(F)cc3)o2)CO1)C(c1ccccc1)c1ccccc1` [Example 79] here?
Its IC50 is 59 nM.

How did the IC50 turn out when `COC(=O)N[C@H](C(=O)Nc1ccccc1CC[C@@H]1CN[C@H](c2cc3ccccc3[nH]2)CO1)C(c1ccccc1)c1ccccc1` [Example 53, N-(2-{2-[(2R,5R)-5-(1H-indol-2-yl)morpholin-2-yl]ethyl}phenyl)-Nα-(methoxycarbonyl)-β-phenyl-L-phenylalaninamide] was run?
Its IC50 is 44.4 nM.

With `O=C(C[C@H](c1ccccc1)c1ccc(F)cc1)Nc1cncc(F)c1CC[C@@H]1CN[C@H](c2nc3ccccc3[nH]2)CO1` [Example 71, (3R)—N-(4-{2-[(2R,5R)-5-(1H-benzimidazol-2-yl)morpholin-2-yl]ethyl}-5-fluoropyridin-3-yl)-3-(4-fluorophenyl)-3-phenylpropanamide] as the compound, how does the IC50 read?
Its IC50 is 0.01 nM.

For `COC(=O)N[C@H](C(=O)Nc1ccccc1CC[C@@H]1CN[C@H](c2nc3ccc(F)cc3[nH]2)CO1)C(c1ccccc1)c1ccccc1` [Example 18, methyl N-[(1S)-1-benzhydryl-2-[[2-[2-[(2R,5R)-5-(6-fluoro-1H-benzimidazol-2-yl)morpholin-2-yl]ethyl]phenyl]amino]-2-oxo-ethyl]carbamate], which IC50 is on record?
The IC50 was 0.125 nM.

`COC(=O)N[C@H](C(=O)Nc1ccccc1CC[C@@H]1CN[C@H](c2nc3cc(Cl)c(Cl)cc3[nH]2)CO1)C(c1ccccc1)c1ccccc1` [Example 12] was tested. Which IC50 did it give?
Its IC50 is 0.706 nM.

`COC(=O)N[C@H](C(=O)Nc1ccccc1CC[C@@H]1CN[C@H](c2nnco2)CO1)C(c1ccccc1)c1ccccc1` [Example 82] was tested. Which IC50 did it give?
The IC50 was 280 nM.

Which IC50 does the source give for `COC(=O)N[C@H](C(=O)Nc1ccccc1CC[C@@H]1CN[C@H](c2cn(C)c(=O)[nH]2)CO1)C(c1ccccc1)c1ccccc1` [Example 88] here?
The IC50 was 310 nM.

With `COC(=O)N[C@H](C(=O)Nc1ccccc1CC[C@@H]1CN[C@H](c2nc3ccc(O)nc3[nH]2)CO1)C(c1ccccc1)c1ccccc1` [Example 89] as the compound, how does the IC50 read?
Its IC50 is 150 nM.

How did the IC50 turn out when `COC(=O)N[C@H](C(=O)Nc1ccccc1CC[C@@H]1CN[C@H](c2nc3cc(F)c(F)cc3[nH]2)CO1)C(c1ccccc1)c1ccccc1` [Example 16, methyl N-[(1S)-1-benzhydryl-2-[[2-[2-[(2R,5R)-5-(5,6-difluoro-1H-benzimidazol-2-yl)morpholin-2-yl]ethyl]phenyl]amino]-2-oxo-ethyl]carbamate] was run?
Its IC50 is 0.0246 nM.

With `COC(=O)N[C@H](C(=O)Nc1ccccc1CC[C@@H]1CN[C@H](c2nnc(C)[nH]2)CO1)C(c1ccccc1)c1ccccc1` [Example 36, Nα-(methoxycarbonyl)-N-[2-(2-{(2R,5R)-5-[(5-methyl-4H-1,2,4-triazol-3-yl)]morpholin-2-yl}ethyl)phenyl]-β-phenyl-L-phenylalaninamide] as the compound, how does the IC50 read?
Its IC50 is 16.5 nM.

How did the IC50 turn out when `COC(=O)N[C@H](C(=O)Nc1ccccc1CC[C@@H]1CN[C@H](c2nc3ccccc3n2C)CO1)C(c1ccccc1)c1ccccc1` [Example 2, methyl N-[(1S)-1-benzhydryl-2-[[2-[2-[(2R,5R)-5-(1-methylbenzimidazol-2-yl)morpholin-2-yl]ethyl]phenyl]amino]-2-oxo-ethyl]carbamate] was run?
Its IC50 is 7.96 nM.

With `O=C(COc1ccccc1Cl)Nc1cccc(F)c1CC[C@@H]1CN[C@H](c2nc3ccccc3[nH]2)CO1` [Example 103, N-(2-{2-[(2R,5R)-5-(1H-benzimidazol-2-yl)morpholin-2-yl]ethyl}-3-fluorophenyl)-2-(2-chlorophenoxy) acetamide] as the compound, how does the IC50 read?
Its IC50 is 31 nM.
